The values that follow come from US4988707A, “Pharmacologically active phenylalkanoyl substituted imidazo (4,5-C) pyridines” (G. D. Searle & Co., priority 1989, dated 1991).

Each structure is given as a SMILES string. pIC50: −log10 of the molar value.

Test [1] has as its system Rabbit Platelet. The test can be described thus: PAF-induced platelet secretion ([3H]serotonin). The format is cell-based. The note with it: Oryctolagus cuniculus, washed [3H]serotonin-labeled rabbit platelets, 60 sec preincubation, PAF 0.2 nM to 0.2 μM, secretion at 60 sec. On the procedure: (§1) PAF-induced platelet aggregation and secretion: Washed, [^3 H]serotonin-labeled rabbit platelets were prepared as previously described in COX, C. P , J. LINDEN and S. I. SAID: VIP elevates platelet cyclic AMP (cAMP) levels and inhibits in vitro platelet activation induced by platelet activating factor (PAF). Peptides 5:25-28, 1984, and maintained in an atmosphere of 5% CO2 at 37° C. until used in the bioassay. Aliquots of platelets (2.5×10^8 /ml) were incubated with either an antagonist of PAF or the appropriate vehicle for 60 sec prior to the addition of PAF (0.2 nM to 0.2 μM). Aggregation was continuously monitored on a strip-chart recorder and recorded as the height of the tracing at 60 sec after the addition of PAF. Secretion of [^3 H] serotonin was measured in a sample of the platelet suspension removed at 60 sec after the addition of PAF. The percent inhibition of aggregation and secretion was calculated by comparing antagonist-treated platelets with the appropriate vehicle-treated control platelets. Each combination of antagonist and PAF was repeated using different platelet preparations. IC50 values were determined by inspection of the dose-response curves.

Test [2] has as its system Rabbit Platelet. The test can be described thus: PAF-induced platelet aggregation. It counts as cell-based. The note with it: Oryctolagus cuniculus, washed rabbit platelets, 60 sec preincubation, PAF 0.2 nM to 0.2 μM, aggregation at 60 sec. On the procedure:
as §1

A further test concerns the target Human Platelet Receptor (Homo sapiens, UniProt P25105).

Human Platelet Receptor, sequence (P25105 whole entry): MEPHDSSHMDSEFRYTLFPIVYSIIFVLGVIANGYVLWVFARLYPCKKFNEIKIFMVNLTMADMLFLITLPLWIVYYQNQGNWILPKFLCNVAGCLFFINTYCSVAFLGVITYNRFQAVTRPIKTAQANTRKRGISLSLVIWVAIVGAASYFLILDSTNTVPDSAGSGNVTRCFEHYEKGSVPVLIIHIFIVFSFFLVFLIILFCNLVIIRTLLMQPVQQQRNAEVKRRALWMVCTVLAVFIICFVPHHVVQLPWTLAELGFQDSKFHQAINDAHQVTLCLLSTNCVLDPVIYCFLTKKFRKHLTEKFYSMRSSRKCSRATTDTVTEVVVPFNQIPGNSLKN
Experimental for Human Platelet Receptor: Inhibition of ^3 H-PAF Binding to Human Platelet Membrane Receptors
Receptor Preparation: Ten units of in-dated human packed platelets, each containing 45-65 ml platelet rich-plasma, were purchased from a commercial blood bank. Disposable plasticware was used throughout for receptor preparation. The units were pooled and a 1 ml aliquot was removed for determination of platelet concentration, using a Coulter Counter. The remaining platelet rich plasma was dispensed into 50 ml conical tubes and centrifuged at room temperature for 15 minutes at 3000 RPM (2300×g).Plasma was decanted and the platelets were resuspended in 35 ml of buffer (10 mM Trizma 7.0, 2 mM EDTA (dipotassium salt), and 150 mM KCl) and transferred to fresh tubes, which were centrifuged again as above. The platelets were washed 3 times, avoiding contaminating erythrocytes at the bottom of the pellets. Pellets were consolidated at each step, and by the last wash with EDTA/KCl buffer, most of the erythrocytes were in 1 tube. The pellets were resuspended in buffer containing 10 mM Trizma 7.0 with 10 mM CaCl2. Following centrifugation, the buffer was decanted and the pellets were resuspended in the CaCl2 buffer, avoiding erythrocyte contamination by recovering less than 100% of the platelet pellets. The resuspended platelets were dispensed in 8-10 ml aliquots into Corex tubes and disrupted by three cycles of freezing (dry ice/ethanol) and thawing (24° C.). The tubes were centrifuged at 40,000×g for 20 minutes at 4° C. Supernatants were decanted and each pellet was resuspended in 5-7 ml 10 mM Trizma 7.0. All resuspended pellets were pooled and aliquots of about 1200 μl were dispensed into 1.5 ml microfuge tubes and frozen at -70° C. Protein content was determined by a fluorescamine protein assay.
Assay Methods: Receptor Characterization--Each receptor preparation was evaluated to determine the number of receptor populations, the number of PAF receptor equivalents/mg protein and the dissociation constant (KD) for PAF binding. This required 2-3 experiments in which the protein concentration was held constant and the ^3 H-PAF ligand concentration was varied from approximately 0.10-2.5 nM and the data was analyzed by Scatchard methodology. Total incubation volume was 250 μl for these procedures and incubations were conducted at 24° C. for 30 minutes. For further experimentation, total incubation volumes are 500 μl. Protein and ligand concentrations were adjusted to give 0.075 nM receptor equivalents in the presence of 0.75 nM ^3 H-PAF. Each receptor preparation was then used to determine the dose--response displacement relationship of unlabeled PAF and the PAF antagonist, triazolam.
Assay Methods: Routine Assay of Compounds--The compounds were weighed precisely and solubilized in quantities of DMSO such that a 5 μl aliquot in the incubate would deliver the desired compound concentration. Compounds tested for the first time in this assay were evaluated at a concentration of 50 μM in the incubation medium. […] Triazolam was always included in each screening assay as a compound inhibition control. […] Nonspecific binding control solution was made by drying to completion about 26.2 μl unlabeled PAF under a stream of argon. PAF was resolubilized in 1000 μl DMSO. When delivered in a 5 μl aliquot, the final concentration of 1 μM PAF in the incubate exceeded by 1000-fold the concentration of ^3 H-PAF.
All buffers containing proteins were made at room temperature on the day of assay. […]

With `O=C(CC1CCCCC1)c1ccc(Cn2ccc3ncnc-3c2)cc1` [2 Cyclohexyl-1-[4-(5H-Imidazo[4,5-c]Pyridin 5-yl-Methyl)Phenyl]Ethanone], the negative logarithm of the IC50 (pIC50) is 6.88 with Rabbit Platelet [1], 6.02 in the test with Rabbit Platelet [2] and 8.35 against Human Platelet Receptor.
The like results for `C=CCC(C(=O)c1ccc(Cn2ccc3ncnc-3c2)cc1)C1CCCCC1` (stereo not shown) [2-Cyclohexyl-1-[4-(5H-Imidazo[4,5-c]Pyridin-5-yl-Methyl)Phenyl]-4-Penten-1-One] were, in that order, 6.98, 6.20 and 8.65.
Take `O=C(c1ccc(Cn2ccc3ncnc-3c2)cc1)C(C1CCCCC1)C1CCCC1` (stereo not shown) [2-Cyclohexyl-2-Cyclopentyl-1-[4-(5H Imidazol[4,5-c]Pyridin-5-yl-Methyl)Phenyl]Ethanone]: the pIC50 in the test on Rabbit Platelet [1] was 7.05; with Rabbit Platelet [2], 6.55; on Human Platelet Receptor, 8.84.
For `O=C(CC1CCCC1)c1ccc(Cn2ccc3ncnc-3c2)cc1` [2-Cyclopentyl-1-[4-(5H-Imidazo[4,5-c]Pyridin-5-yl-Methyl)Phenyl]Ethanone], the negative-log IC50 (pIC50) with Rabbit Platelet [1] is 6.42; in the test on Rabbit Platelet [2], 5.59; at Human Platelet Receptor it was 8.08.
`Cc1nnc2n1-c1ccc(Cl)cc1C(c1ccccc1Cl)=NC2` [triazolam, reference compound]: the inhibition at 50 µM at Human Platelet Receptor (read-out: inhibition of 3H-PAF binding) was roughly 50%.

In general, pIC50 refers to the IC50 on a negative log10 scale, so that one unit is a factor of ten. For orientation: inhibition means the change of the read-out against control, counted positive when it falls.
